Format in all cases: cell-based
One series concerns MCF7 cells. Nature of the series: TPA treatment of MCF7 cells, cell cycle analysis. Conditions: breast cancer lines (MCF7), 100 nM TPA. The protocol: (§1) HL60 cells (0.5×10^6 cells/ml) were differentiated either to neutrophils with 1.3% DMSO for 8 days or to macrophages with 16 nM tetradecanoyl phorbol acetate (TPA) for 3 days; K562 cells (0.5×10^6 cells/ml) to megakaryocytes with 16 nM phorbol myristate acetate (PMA) for 3 days or to erythrocytes with […] for 4 days. HL60 and K562 cells were grown in DMEM or RPMI-1640, respectively, supplemented with 10% (v/v) FBS. MCF-7 cells (10^6 cells/6 cm dish) were differentiated with 100 nM TPA for 3 days in Dulbecco's Modified Eagle Medium (DMEM) with 10% (v/v) fetal bovine serum (FBS) (Cunliffe et al., Cancer Res., 63:7158-66 (2003). The breast cancer lines and human mammary epithelial cells used in experiments shown in FIGS. 6 and 10, were cultured in media according to protocols from the American Type Culture Collection (ATCC®; Manassas, Va.) (www.atcc.org/).
MCF-7 cells were differentiated with 100 nM TPA. At day 0, 1, 2, and 3 cells were collected, fixed with 70% cold ethanol and stored at −20° C. Permeabilized cells were centrifuged, washed once with PBS, and incubated for 30 minutes in propidium iodide (PI)/RNase Staining Buffer (BD Pharmingen, San Diego, Calif.) at 25° C. before flow cytometric analysis.

Another series has as its system HL60 and K562 cells. Nature of the series: TPA differentiation of blood cells, miR-182 qRT-PCR. The settings on record: TPA-treated blood cells. How it is done: as §1
Analysis of the miRNAs of the miR-183 cluster was conducted using qPCR using the TaqMan MicroRNA Assay from Applied Biosystems as per the manufacturer's instructions and normalized to RNU6B snRNA. Analysis of mRNA expression was carried out with qPCR using the SYBR Green master mix (Applied Biosystems, Foster City, Calif.) according to the manufacture's manual and the BioRad iCycler. […]

The test system of a further series is PARP. Nature of the series: PARP activity assay (universal PARP chemiluminescent kit) in MDA-MB231 cells. The settings on record: MDA-MB231, increasing concentrations, 100 μM H2O2. How it is done:
MDA-MB231 cells (2×10^6) were plated in 10-cm tissue culture dishes overnight in duplicates. The cells were exposed to the indicated concentrations of 4-Amino-1,8-naphthalimide in phosphate buffered saline (PBS) for 10 minutes on ice followed by 100 μM H2O2 for 20 minutes on ice. The cells were then washed thrice in ice cold PBS for 8-10 minutes and incubated in complete medium with the indicated concentrations of 4-Amino-1,8-naphthalimide at 37° C. The cells were then lysed and PARP activity was measured using the universal PARP chemiluminescent assay kit (Trevigen, Gaithersburg, Md.) as per the manufacturer's instructions.

Another series concerns BRCA1 transcript. Briefly: Immunoprecipitation of HA-AGO1/miRNA complex, qRT-PCR of bound transcripts, MDA-MB231. The settings on record: MDA-MB231, HA-AGO1 IP, normalized to 5S rRNA. The protocol:
miR-182 cDNA and miR-17 cDNA was cloned from HL60 cDNA in pcDNA3.1-Puro expression vector (Invitrogen, Carlsbad, Calif.) using the following primers: […]
MDA-MB231 cells (0.5×10^6 cells) were co-transfected with 1 μg of HA-AGO1 (pIRES-FLAG/HA vector, Addgene) and 0.5 μg of expression vector for miR-182/miR-17 or miR-scr using Lipofectamine 2000. After 2 days cells were harvested using 400 μl lysis buffer (100 mM KCl, 5 mM MgCl2, 10 mM Hepes, pH 7.0, 0.5% Nonidet P-40) containing freshly added RNase inhibitor, RNaseOUT (Invitrogen, Carlsbad, Calif.) and Protease Inhibitor Cocktail (Roche, Basel, Switzerland). After centrifugation, a 50 μl aliquot of supernatant was taken as the input for subsequent RNA extraction. The remaining supernatant was gently shaken with HA-beads (HA-probe Santa Cruz sc-7392) for 4 h at 4° C. in spin columns (Pierce Spin Columns-Screw Cap). The columns were drained, washed and the retained beads were treated with 5 U DNaseI in NT2 buffer (50 mM Tris, pH7.4, 150 mM NaCl, 1 mM MgCl2, 0.05% Nonidet P-40) for 10 minutes at 37° C., washed with NT2 buffer and then treated with Proteinase K in NT2 buffer plus 1% SDS for 30 minutes at 55° C. […] RNA was reverse transcribed (see RNA isolation) and analyzed with qPCR for enrichment of mRNA of miR-182/miR-17 predicted targets.

A further series deals with BRCA1. Briefly: BRCA1 expression after ectopic miRNA overexpression in HL60 cells (immunoblot, qPCR). Conditions: HL60 cells transiently transfected with expression vectors, Western blot. The protocol: Analysis of the miRNAs of the miR-183 cluster was conducted using qPCR using the TaqMan MicroRNA Assay from Applied Biosystems as per the manufacturer's instructions and normalized to RNU6B snRNA. Analysis of mRNA expression was carried out with qPCR using the SYBR Green master mix (Applied Biosystems, Foster City, Calif.) according to the manufacture's manual and the BioRad iCycler. The mRNA (1 μg) was reverse transcribed with 50 ng random primers using 100 U moloney murine leukemia virus (MMLV) reverse transcriptase (Epicentre, Madison, Wis.) according to the manufacturer's manual. Results were normalized to 5SrRNA or GAPDH.
In each experiment, where Western blot analysis was done, a fraction of 0.2−0.5×10^6 cells was taken out at day, 3 or 4, post-transfection. Breast cancer cell lines were collected from 6 well tissue culture plates (0.5-1×10^6 cells). Cells lysates were prepared in RIPA buffer (150 mM NaCl, 1% NP-40, 0.5% sodium deoxycholate, 0.1% SDS, 50 mM Tris, pH 8.0). Lysates of 0.1×10^6 cells of each sample plus loading buffer were loaded on 8% SDS-PAGE gels, semi-dry transferred on nitrocellulose membrane, and probed with anti-BRCA1 antibody at a 1:500 dilution (CALBIOCHEM, MS110) and anti-tubulin antibody at a 1:10,000 dilution (Sigma, Clone B-5-1-2).

Consider “12-O-tetradecanoylphorbol-13-acetate [TPA]”, for which the cell cycle state result with MCF7 cells is “leads to a post-mitotic state”. In the series on HL60 and K562 cells, the miR-182 expression entry is given as “induces expression of miR-182”.
On to `Nc1ccc2c3c(cccc13)C(=O)NC2=O` [ANI, 4-Amino-1,8-naphthalimide], for which the results for the PARP activity result with PARP and in the series on PARP (listed as 4-Amino-1,8-naphthalimide) were “PARP inhibition was confirmed” and “inhibits PARP activity”, respectively.
As to “miR-17: another miRNA predicted to target BRCA1; expression vector [reference compound]”, the “association of miRNA/AGO1 complex with BRCA1 transcript” value in the series on BRCA1 transcript was “did not associate”.
On to “miR-183: miRNA of cluster-183, co-expressed with miR-182; expression vector (GUAUGGCACUGGUAGAAUUCACUGU; listed as Homo sapiens) [reference compound]”, for which the BRCA1 protein level entry in the series with BRCA1 is recorded as “did not affect”.

These data come from patent publication US9642821B2, “MiR-182 in the diagnosis and treatment of cancer” (Dana-Farber Cancer Institute, Inc., priority 2010, dated 2017).
